The text below walks through data of patent US20100216706A1, “Ghrelin Protects Substantia Nigra Dopamine Neurons” (priority 2007, published 2010).

One assay has as its system SNpc DA neurons. Put plainly: Whole-cell patch clamp, action potential firing of SNpc DA neurons in brain slices. In kind it is cell-based, mice and rats. The method, then:
Patch clamp recordings from VTA dopamine neurons: Brain slices (300 μm) containing the substantia nigra pars compacta (SNpc), were cut on a vibratome from 2-3 week old male and female mice (n=9) and rats (n=5). Briefly, animals were anesthetized with Nembutal (80 milligram/kilogram body weight) and then decapitated. The brains were rapidly removed and immersed in cold (4° C.) oxygenated bath solution (containing (mM): NaCl 150; KCl 2.5; CaCl2 2; MgCl2 2; Hepes 10; and glucose 10, pH 7.3 with NaOH). After being trimmed to contain only the SNpc, slices were transferred to a recording chamber where they were constantly perfused with bath solution at 2 milliliter/minute. Dopamine neurons in the SNpc were identified by presence of a large Ih current (>100 pA) evoked by hyperpolarizing voltage steps from −50 to −120 mV for 2 seconds. This approach identifies dopaminergic cells with >90% accuracy (Abizaid et al., 2006, J Clin Invest. 116(12):3229-39. Epub 2006 Oct. 19). In brain slices, whole-cell current clamp was used to observe spontaneous action potentials. Slices were maintained at 33° C. and perfused continuously with ASCF (bubbled with 5% CO2 and 95% O2) containing (in mM): NaCl, 124; KCl, 3; CaCl2, 2; MgCl2, 2; NaH2PO4, 1.23; NaHCO3, 26; glucose, 10, pH 7.4 with NaOH. Ghrelin was applied to the recording chamber via bath application. The pipette solution contained (mM): gluconic acid 140; CaCl2, MgCl2 2; EGTA 1; HEPES 10; Mg-ATP; 4, and Na2-GTP; 0.5, pH 7.3 with KOH
To address this question, an experiment using whole-cell patch clamp electrophysiology was performed to investigate whether ghrelin directly activates SNpc DA neurons. DA neurons (n=11) in the SNpc were identified based on their characteristic Ih currents (Johnson et al., 1992, J Neurosci 12: 483-8). Spontaneous action potentials were recorded under current clamp for at least 10 minutes of stable recording. Ghrelin (1-3 μmol) was applied via bath application.
On the technique in general: In patch-clamp work, channel activity is measured electrically.

Assay [1] relates to tyrosine hydroxylase (TH) mRNA. Put plainly: TH mRNA expression in the midbrain (real-time PCR). The conditions noted are these: three hours after ghrelin injection (10 nmols), wild-type mice; saline 1.03±0.15. Format: in vivo. The method, then:
Real-time PCR: RNA was extracted from the midbrain of 8 ghrelin-treated mice or 8 saline-treated mice using TRIzol® (Invitrogen, Carlsbad, Calif.) according to the manufacturer's instructions. cDNA was synthesized using the First-Strand cDNA synthesis kit (Amersham Biosciences), using a total of 3 μg of total RNA in 15 μl of total volume. Real-time PCR analysis of TH mRNA (SEQ ID NO. 4: 5′ […] 3′; SEQ ID NO. 5: 5′ […] 3′) was performed using iQ SYBR green supermix (Bio-Rad) and […] of each primer. Primers for 18S were used as controls. Measurements were performed on an iCycler (Bio-Rad).
Tyrosine hydroxylase (TH) is the rate limiting enzyme of dopamine biosynthesis. An experiment was performed to examine whether ghrelin alters TH mRNA expression in the midbrain.

Assay [2] concerns midbrain (SN-VTA) mitochondria. Nature of the assay: Mitochondrial respiration in midbrain of ghrelin-treated rats (Clark-type oxygen electrode). Format: in vivo. The conditions noted are these: 30 nmol IP, 3 hours. The method, then:
Mitochondrial respiration: The ability of ghrelin to promote mitochondrial respiration was examined in mitochondria isolated from midbrain of ghrelin-treated rats (30 nmol) three hours after injection. Rats were used as the mitochondrial yield after isolation is much higher than the yield from mice. Mitochondrial respiration was also examined in the pooled midbrain of UCP2 ko and wt mice (3 pooled brains), 3 hours after ghrelin injection (IP 30 nmol).
Mitochondria were pooled from the SN-VTA (4 animals=1, total n=4) and isolated by differential centrifugation. Because of the size of the tissue dissected, it was impossible to solely isolate only the SNc, and as such the results are reported as SN-VTA. Briefly, the SN-VTA was rapidly dissected and homogenized in isolation buffer (215 mM Mannitol, 75 mM sucrose, 0.1% fatty acid free BSA, 20 mM Hepes, 1 mM EGTA, pH adjusted to 7.2 with KOH). The homogenate was spun at 1300×g for 3 minutes. The supernatant was removed, and the pellet was resuspended with isolation buffer and spun again at 1300×g for 3 minutes. The 2 sets of supernatant from each sample were topped off with isolation buffer and spun at 13000×g for 10 minutes. The supernatant was discarded, and this step was repeated. After this second spin at 13000×g, the supernatant was discarded, and the pellets were resuspended with isolation buffer without EGTA and spun at 10000×g for 10 minutes. The final mitochondrial pellet was resuspended with 50 μl of isolation buffer without EGTA. Protein concentrations were determined with a BCA protein assay kit (Pierce, Rockford, Ill., USA).
Mitochondrial respirations were assessed using a Clark-type oxygen electrode (Hansatech Instruments, Norfolk, England) at 37° C. with pyruvate and malate (5 mM and 2.5 mM) as oxidative substrates in respiration buffer (215 mM Mannitol, 75 mM sucrose, 0.1% fatty acid free BSA, 20 mM Hepes, 2 mM MgC1, 2.5 mM KH2PO4, pH adjusted to 7.2 with KOH). Following the addition of ADP and oligomycin, UCP-mediated proton conductance was measured as increased fatty acid-induced respiration (Echtay et al., 2002), which was then compared to state 4 respiration induced by oligomycin, an inhibitor of H^+ transporting ATP synthase.
To determine whether ghrelin influences mitochondrial metabolism in the SNpc, mitochondrial respiration was measured in isolated […] from the midbrain of ghrelin-treated wild-type rats.
Ghrelin was administered intraperitoneally (30 nmol) and food was removed for the three hours injection period prior to sacrifice as ingested calorie load and the postprandial increase in glucose and insulin are known to reduce ghrelin effectiveness (Callahan et al., 2004, J Clin Endocrinol Metab 89: 1319-24; Cummings et al., 2006, Physiol Behav 89: 71-84). […] Subsequent blocking of the ATP synthase with oligomycin produced greater basal uncoupling after ghrelin (saline 31.4±1.4 vs ghrelin 50.4±1.5, p<0.0001; FIG. 4A). Palmitate (free fatty-acid) induced respiration was also elevated in ghrelin-treated rats (saline 125.0±3.8 vs ghrelin 185.3±9.3, p<0.001; FIG. 4A). Finally, ghrelin increased FCCP-driven respiration, an index of total uncoupling capacity of the inner mitochondrial membrane (FIG. 4A).

No end group written: not given here. *: point of attachment. Octanoyl = CCCCCCCC(=O)*

Take “ghrelin (GSS(Octanoyl)FLSPEHQRVQQRKESKKPPAKLQPR; listed as Homo sapiens) [28 amino acid acyl-peptide esterified with octanoic acid on Ser3; endogenous ligand of GHSR]”: the Action potential frequency in the assay on SNpc DA neurons (ghrelin 1-3 μmol bath application, control 100%) is 131.9%±17.5. In addition, the “Identified DA neurons that responded” value with SNpc DA neurons (ghrelin bath application) is reported as 10 of 11. Moreover, the “Action potential frequency after washout” value with SNpc DA neurons (washout of ghrelin, control 100%) is reported as 101.9%±4.6. In assay [1], the “TH mRNA expression in the midbrain” value turned out to be 2.86±0.46. In addition, the FCCP-driven respiration result in assay [2] is “increased”. For the same substance, the “Basal uncoupling after oligomycin” value in assay [2] (saline 31.4±1.4) was determined as 50.4±1.5. In assay [2] (saline 33.5±2.1), the “Mitochondrial respiration after pyruvate and malate” value is on record as 49.5±1.9. The substance further came in with a Palmitate induced respiration in assay [2] (saline 125.0±3.8) of 185.3±9.3. Also, the “Mitochondrial respiration after ADP” value in assay [2] (saline 128.3±7.5) came to 185.2±17.7.
